Patent US20230330234A1, “HYPERBRANCHED POLYESTER POLYOL DERIVATIVE AS DRUG SOLUBILIZER” (FREIE UNIVERSITÄT BERLIN, priority 2020, published 2023)
Values after ≈ are worked out from the molar mass of the structure shown.

Experiments:
[1] = Solubility in water
[2] = Solubility in aqueous solution of the hyperbranched polyester polyol derivative;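 also: drug added to a previously prepared clear aqueous solution of the solubilizing polymer, stirred 18 h at room temperature in the dark, then centrifuged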
[3] = physchem; conditions: aqueous with cosolvent or surfactant or cyclodextrin, thermodynamic from solid
[4] = physchem; conditions: water
[5] = Carrying potential of h(PG-co-PCL)60S0.95 by elemental analysis; type: physicochemical; conditions: calculated by elemental analysis
Excerpt: (§1) The carrying potential (CP) of the polymer (solubilizing agent) is obtained as the ratio of the loaded and solubilized drug to the amount of solubilizing agent (Eq. 1).
For drugs presenting an absorption band at wavelength lower than 400 nm, the UV-VIS approach is not suitable, due to drug signals overlapping with signals of the solubilizing agent. Therefore, elemental analysis is chosen as alternative approach. The drugs chosen for the solubilization and entrapment contain nitrogen atoms, which are not present in the polymer structure. Via the quantification of the nitrogen content in the sample, it is possible to determine the amount of drug in it. For the loading quantification, the same equation is used as in the previous case.
(§2) The following tables (Table 5, Table 6 and Table 7) show the results of the performed analyses. In this context, h(PG-co-PCL)60S0.95 was used as hyperbranched polyester polyol derivative. Its non-sulfated backbone has a molecular weight of 60 kDa. The polyester polyol derivative has a sulfation degree of 95%.

[6] = Size and Z-potential investigation by DLS in PB; type: physicochemical; conditions: h(PG-co-PCL)60S0.95 with solubilized drug
Excerpt: The following tables (Table 5, Table 6 and Table 7) show the results of the performed analyses. In this context, h(PG-co-PCL)60S0.95 was used as hyperbranched polyester polyol derivative. Its non-sulfated backbone has a molecular weight of 60 kDa.

[7] = Carrying potential of h(PG-co-PCL)60S0.95 by UV-VIS; type: physicochemical; conditions: calculated by UV
Experimental: For drugs presenting an absorption band at wavelength higher than 400 nm, UV-VIS analysis is chosen as quantification method. First, a calibration curve of the free drug in the suitable solvent mixture is recorded. Suitable combinations of solvent include mixtures of water and methanol, as well as of water and ethanol, in both cases in a ratio falling in a range of from 40 to 60% to 20 to 80%.
The calibration curve is prepared with at least 5 points, in a concentration range depending on the drug to be quantified. Linear regression is applied to generate the equation of the straight-line necessary to calculate the drug content.
The formulation is afterwards dissolved in the same medium and an UV-VIS spectrum is recorded. It is possible to use a straight-line equation to get the concentration of drug in solution. Knowing the total volume of the formulation, the content of drug, in mg, can be calculated.
as §1, §2

[8] = tested on: HeLa cells; test: Cell viability experiment (toxicity) in HeLa cells; type: cell-based; conditions: Homo sapiens, free drug solubilized in DMSO vs drug solubilized in sulfated polyester polyol
[9] = tested on: KB-V1 cells; test: Cell viability experiment (toxicity) in KB-V1 cells; type: cell-based; conditions: Homo sapiens, free drug solubilized in DMSO vs drug solubilized in sulfated polyester polyol

With `CC(C)(C)C[C@@H]1N[C@@H](C(=O)N[C@H]2CC[C@H](O)CC2)[C@H](c2cccc(Cl)c2F)[C@]12C(=O)Nc1cc(Cl)ccc12` [MI-773] the Solubility in water [1] was 0.001 mg/mL (≈ 1.78 µM) and the “Solubility in aqueous polymer solution” value [2] was >0.3 mg/mL.
With `CN[C@@H]1C[C@H]2O[C@@](C)([C@@H]1OC)n1c3ccccc3c3c4c(c5c6ccccc6n2c5c31)C(=O)NC4` [Staurosporin] the Solubility in water [1] was 0.04 mg/mL (≈ 85.7 µM) and the “Solubility in aqueous polymer solution” value [2] was >0.3 mg/mL.
In the case of `Cc1c(-c2c(-c3ccc(F)o3)sc3ncnc(O[C@H](Cc4ccccc4OCc4ccnn4CC(F)(F)F)C(=O)O)c23)ccc(OCCN2CCN(C)CC2)c1Cl` [S63845], the solubility [3] is reported as > 0.3 mg/mL and the solubility [4] is reported as 0.001 mg/mL (≈ 1.21 µM).
For `CC(=O)Nc1cccc(-n2c(=O)n(C3CC3)c(=O)c3c(Nc4ccc(I)cc4F)n(C)c(=O)c(C)c32)c1` [Trametinib], the solubility at 18 h [3] was > 0.3 mg/mL, the Carrying potential [5] was 2% wt % and the “Size (volume)” value ([6]; DLS in PB, in nm (unit assumed)) was 14 ± 2. The Z-potential ([6]; in PB, in mV (unit assumed)) was −18.9 and the solubility [4] was 0.03 mg/mL (≈ 48.7 µM).
Work on `[2H]c1nc(C)nc([2H])c1-c1cc(NC[C@@H](C)c2cccc3c(C(=O)NC)ccnc23)ncn1` [M9831/VX-984] yielded a Carrying potential [7] of 10% wt %.
With `CCN(CC)CCNC(=O)c1c(C)[nH]c(/C=C2\C(=O)Nc3ccc(F)cc32)c1C` [Sunitinib] the solubility ([1]; Solubility in water) was 0.03 mg/mL (≈ 75.3 µM), the solubility at 18 h [3] was > 0.3 mg/mL and the Carrying potential [5] was 8.7%^ wt %. It also gave a Carrying potential [7] of 11% wt %, an IC50 [8] of 3.52 mg/L (≈ 8.84 µM) and an IC50 [9] of 1.95 mg/L (≈ 4.9 µM).
For `CNCc1ccc(-c2cc(-c3nc(-c4ccc(S(=O)(=O)C(C)C)cc4)cnc3N)on2)cc1` [Berzosertib], the Carrying potential [7] was 10% wt %.
